According to publication PMC5760527, “Connexin 43 Hemichannel as a Novel Mediator of Sterile and Infectious Inflammatory Diseases” (Scientific Reports, 2018):

How the values were obtained:
[1] = test system: LPS-induced production of nitric oxide; experiment: Nitric oxide production; assay type: cell-based; conditions: data not shown
[2] = test system: gap junctional intercellular communication, NIH 3T3 fibroblasts; experiment: Scrape-loading assay of GJ intercellular communication; assay type: cell-based; conditions: LY (444 Da) and rhodamine dextran (10,000 Da), overnight or 20 min incubation, 2 min diffusion
Description: We used NIH 3T3 fibroblasts to investigate the effects of Cx43 mimetic peptides on GJ permeability employing a technique termed scrape-loading. After overnight or 20 min incubation with or without Cx43 mimetic peptides in DMEM, EGTA was added to DMEM to deplete free calcium. Immediately afterwards, 1% LY and 1% rhodamine dextran was added into PBS, followed by scraping the cell monolayer with a pipette tip loading tracers into cytoplasmic compartment of scraped cells. Tracers were allowed to diffuse to adjacent cells for 2 min before immobilized by PF fixation for 10 minutes. Cells were subsequently extensively washed in PBS three times and coversliped to allow examination of LY diffusion.

Cx43 EL1 peptide = molecular target: T1, Cx43 EL1 peptide (Homo sapiens, UniProt P17302); experiment: Surface Plasmon Resonance, Cx43 EL1 peptide; assay type: binding; conditions: synthetic full-length EL1 peptide, data not shown
T1 construct: synthetic full-length Cx43 EL1 or EL2 peptide as judged by the Surface Plasmon Resonance Analysis
T1 sequence (P17302 45-76 limits assumed): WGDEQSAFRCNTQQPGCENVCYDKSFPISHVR

[3] = test system: LPS-induced trypan blue uptake, RAW 264.7 cells; experiment: Trypan blue uptake assay; assay type: cell-based, murine; conditions: P5 10 µg/ml, LPS 1.0 µg/ml, 16 h, 0.08% trypan blue, P < 0.05 versus +LPS
Description: Specifically, murine macrophage-like RAW 264.7 cells were stimulated with LPS (1.0 µg/ml) in the absence or presence of P5 peptide (10 µg/ml) for 16 h, and the culture medium was then replaced with 1 × PBS containing 0.08% trypan blue (Cat. # 15250-061, Invitrogen). Phase contrast images of multiple fields were randomly captured, and the percentage of trypan blue-stained cells was calculated.

[4] = test system: HMGB1 release, RAW 264.7 cells; experiment: HMGB1 release, Western blotting; assay type: cell-based, murine; conditions: LPS 0.5 µg/ml, 16 h, P < 0.05 versus +LPS
[5] = test system: Panx1 hemichannel permeability, macrophages; experiment: Lucifer Yellow dye uptake in presence of calcium (Panx1 hemichannel permeability); assay type: cell-based
[6] = test system: TUNEL-positive cells, lungs of septic mice (CLP); experiment: TUNEL staining of septic lungs; assay type: in vivo, Balb/c mice; conditions: lungs at 24 h post CLP, at protective doses; 5–8 fields; P < 0.05 versus CLP
Text: (§1) This study was approved and performed in accordance with the guidelines of the Institutional Animal Care and Use Committee of the Feinstein Institute for Medical Research, Manhasset, New York, USA (Animal Protocol #2008-033, Approval date: September 10, 2014). To evaluate the effect of various Cx43 mimetic peptides on sepsis lethality, a clinically relevant animal model of sepsis induced by cecal ligation and puncture (CLP) was employed. Briefly, the cecum of Balb/c mice was ligated at about 5 mm from the cecal tip, and then punctured once with a 22-gauge needle. GAP26, TAT-GAP19 or P5 peptides were administered intraperitoneally into mice at indicated doses and time points, and animal survival rates were monitored for up to 2 wks. The Kaplan-Meier method was used to compare the differences in mortality rates between groups.
Upper and lower lobe lung tissues were collected at 24 h post CLP, fixed in 4% paraformaldehyde, embedded in paraffin, and cut into 5 µm thick sections. […] Five to eight fields of view were randomly selected for each tissue section, and the number of TUNEL-positive green cells was expressed as an average of percentage of total DAPI-positive blue cells.

[7] = test system: LPS-induced ATP release, RAW 264.7 cells; experiment: ATP release assay; assay type: cell-based, murine; conditions: P5 20 µM; LPS 1 µg/ml; RAW 264.7, serum-free DMEM; luciferin:luciferase; P < 0.05 versus +LPS
Description: In addition to the LY dye uptake, we also employed the ATP release assay to measure the Cx43 hemichannel activities. The current gold standard for ATP quantification relied on luciferin:luciferase chemistry where the enzyme luciferase catalyzed the oxidation of ATP and luciferin ultimately resulting in the generation of a photon which could be quantified by luminometry using a luminometer plate reader (Synergy H1 Hybrid, Biotek, Winooski, U.S.A.) and the amount of ATP was calculated from standard curve. Briefly, RAW 264.7 cells were cultured in serum-free DMEM medium, and stimulated with LPS (1 µg/ml) in the absence or presence of Cx43 mimetic peptide (P5, 20 µM). The cell-conditioned culture medium was collected and subjected to ATP measurement. We used the Molecular Probes® ATP Determination Kit (Cat. # A22066, Life Technologies), which was based on luciferase’s absolute requirement for ATP in producing light (emission maximum ~560 nm at pH 7.8), to measure the extracellular ATP levels in LPS-stimulated RAW 264.7 cells.

[8] = test system: macrophage Cx43 hemichannel activities, RAW 264.7 cells; experiment: Lucifer Yellow dye uptake, hemichannel permeability, calcium-depleted; assay type: cell-based, murine; conditions: P5 20 μM, LPS 0.5 μg/ml, 16 h, LY 15 min, P < 0.05 versus +LPS
Text: Because connexon is the structural unit for both hemichannel (1 connexon) and gap junction (2 connexons from opposing cells), which are both permeable to similar molecular weight molecules, such as the Lucifer yellow (LY). Thus, the LY dye uptake could be used to determine the channel permeability of both hemichannel (as indicated by the rate of LY entry into the cells) and gap junction channels (as judged by the distance of intercellular LY diffusion). The LY dye uptake assay relied on the ability of this dye present in the extracellular milieu to cross the plasma membrane and became concentrated inside of the cell, which could be quantified by fluorescence microscopy. To determine the effects of Cx43 mimetic peptides on hemichannel permeability, RAW 264.7 cells were subjected to LPS stimulation (0.5 µg/ml, 16 h) before replacing the medium with fresh DMEM containing various Cx43 mimetic peptides, GAP26 (100 µM), TAT-GAP19 (200 µM) or P5 (20 µM). Following a brief incubation (15 min), EGTA (1 mM) was added to deplete free calcium prior to the addition of LY dye (1%). Fifteen min later, cells were fixed with 2% paraformaldehyde, and the number of LY-positive cells was counted. The ratio of LY-positive cells vs. total cell counts (DAPI staining) was used as the measurement of hemichannel permeability.

[9] = test system: Balb/c mice, polymicrobial sepsis (CLP); experiment: CLP-induced sepsis survival; assay type: in vivo; conditions: P5 8.0 mg/kg
Text: as §1

ENVCYD [P5, cysteine-containing Cx43 EL1 mimetic hexamer peptide, P5 (ENVCYD)]
LPS-induced production of nitric oxide [1]: did not affect the LPS-induced production of nitric oxide | gap junctional transfer of LY / RD immobility [2]: no obvious difference in the LY diffusion or RD immobility patterns | binding to Cx43 EL1 peptide (Cx43 EL1 peptide): did not find evidence of P5 interacting | LPS-induced trypan blue uptake [3]: significantly suppressed the LPS-induced elevation of trypan blue uptake | inhibition of LPS-induced HMGB1 release [4]: significantly inhibited by P5 in a dose-dependent fashion | LY uptake in calcium-containing medium [5]: did not alter macrophage LY uptake in calcium-containing medium | TUNEL-positive cells in septic lungs [6]: significantly reduced the number of TUNEL-positive cells in septic lungs | LPS-induced ATP release [7]: significantly attenuated the LPS-induced ATP release | effect on endotoxin-induced hemichannel activities (LY dye uptake) [8]: significantly inhibited the endotoxin-induced elevation of hemichannel activities | animal survival rates (in words) ([9]; +2 h and +24 h after onset of sepsis, P < 0.05 versus CLP + Saline): significant increase in animal survival rates | animal survival ([9]; i.p., +2, +24 h post CLP, up to two weeks, saline 30%, P < 0.05, Kaplan-Meier): 85%
